Results as given in patent US12655116B2, “Substituted isophthalic acid diamides” (Bayer Aktiengesellschaft, priority 2020, dated 2026).

How the values were obtained:
LOLRI [1] = assay: Post-emergence herbicidal action against LOLRI; assay type: in vivo, Lolium rigidum; details: Lolium rigidum, 504 h
Outline: (§1)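 A WP or EC formulation diluted in water with 0.2% wetting agent was sprayed at 600 to 800 l/ha onto one-leaf-stage plants grown in sandy loam. About 3 weeks later, action was rated visually in percent, 100% being dead plants.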

HORMU [2] = assay: Pre-emergence herbicidal action against HORMU; assay type: in vivo, Hordeum murinum; details: Hordeum murinum, 504 h, pre-emergence
Outline: (§2)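 Greenhouse pots of sandy loam held seeds covered with soil, onto which the compound was applied before emergence. An aqueous suspension or emulsion of WP or EC was used at 600 to 800 l/ha with 0.2% wetting agent. Percent damage was judged visually at 3 weeks.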

STEME [3] = assay: Pre-emergence herbicidal action against STEME; assay type: in vivo, Stellaria media; details: Stellaria media, 504 h
Outline: as §2

LOLRI [4] = assay: Pre-emergence herbicidal action against LOLRI; assay type: in vivo, Lolium rigidum; details: Lolium rigidum, 504 h
Outline: as §2

PHBPU = assay: Post-emergence herbicidal action against PHBPU; assay type: in vivo, Pharbitis purpurea; details: Ipomoea purpurea, 504 h
Outline: as §1

STEME [5] = assay: Post-emergence herbicidal action against STEME; assay type: in vivo, Stellaria media; details: Stellaria media, 504 h
Outline: as §1

ECHCG [6] = assay: Post-emergence herbicidal action against ECHCG; assay type: in vivo, Echinochloa crus-galli; details: Echinochloa crus-galli, 504 h
Outline: as §1

AMARE [7] = assay: Pre-emergence herbicidal action against AMARE; assay type: in vivo, Amaranthus retroflexus; details: Amaranthus retroflexus, 504 h, 100% = plants have died, 0% = like control plants
Outline: as §2

ALOMY [8] = assay: Post-emergence herbicidal action against ALOMY; assay type: in vivo, Alopecurus myosuroides; details: Alopecurus myosuroides, 504 h, visual assessment about 3 weeks after treatment vs untreated controls
Outline: as §1

SETVI [9] = assay: Post-emergence herbicidal action against SETVI; assay type: in vivo, Setaria viridis; details: Setaria viridis, 504 h
Outline: as §1

AVEFA [10] = assay: Pre-emergence herbicidal action against AVEFA; assay type: in vivo, Avena fatua; details: Avena fatua, 504 h, pre-emergence
Outline: as §2

SETVI [11] = assay: Pre-emergence herbicidal action against SETVI; assay type: in vivo, Setaria viridis; details: Setaria viridis, 504 h
Outline: as §2

ALOMY [12] = assay: Pre-emergence herbicidal action against ALOMY; assay type: in vivo, Alopecurus myosuroides; details: Alopecurus myosuroides, 504 h, pre-emergence
Outline: as §2

VIOTR = assay: Post-emergence herbicidal action against VIOTR; assay type: in vivo, Viola tricolor; details: Viola tricolor, 504 h
Outline: as §1

VERPE = assay: Pre-emergence herbicidal action against VERPE; assay type: in vivo, Veronica persica; details: Veronica persica, 504 h
Outline: as §2

AVEFA [13] = assay: Post-emergence herbicidal action against AVEFA; assay type: in vivo, Avena fatua; details: Avena fatua, 504 h, visual assessment about 3 weeks after treatment, 100% = plants have died, 0% = like control plants
Outline: as §1

MATIN [14] = assay: Post-emergence herbicidal action against MATIN; assay type: in vivo, Matricaria inodora; details: Tripleurospermum inodorum, 504 h
Outline: as §1

ECHCG [15] = assay: Pre-emergence herbicidal action against ECHCG; assay type: in vivo, Echinochloa crus-galli; details: Echinochloa crus-galli, 504 h
Outline: as §2

ABUTH = assay: Pre-emergence herbicidal action against ABUTH; assay type: in vivo, Abutilon theophrasti; details: Abutilon theophrasti, 504 h
Outline: as §2

HORMU [16] = assay: Post-emergence herbicidal action against HORMU; assay type: in vivo, Hordeum murinum; details: Hordeum murinum, 504 h
Outline: as §1

MATIN [17] = assay: Pre-emergence herbicidal action against MATIN; assay type: in vivo, Matricaria inodora; details: Tripleurospermum inodorum, 504 h
Outline: as §2

POLCO = assay: Post-emergence herbicidal action against POLCO; assay type: in vivo, Polygonum convolvulus; details: Fallopia convolvulus, 504 h, dosage 80 g/ha
Outline: as §1

AMARE [18] = assay: Post-emergence herbicidal action against AMARE; assay type: in vivo, Amaranthus retroflexus; details: Amaranthus retroflexus, 504 h, visual assessment about 3 weeks after treatment, 100% = plants have died, 0% = like control plants
Outline: as §1

[19] = 20 g/ha, scored visually after 3 weeks, 100% = plants have died, 0% = like control plants
[20] = 320 g/ha, scored visually after 3 weeks, 100% = plants have died, 0% = like control plants
[21] = 80 g/ha, scored visually after 3 weeks vs untreated controls (100% = plants have died, 0% = like control plants)

CNC(=O)c1c(C(F)(F)F)ccc(C(=O)Nc2nnnn2C)c1Cl [Example 1-129]
pest or weed control at 5 g/ha (LOLRI [1]; dosage 5 g/ha): 80% | pest or weed control at 20 g/ha (LOLRI [1]; dosage 20 g/ha): 100% | pest or weed control at 80 g/ha (LOLRI [1]; dosage 80 g/ha): 100% | pest or weed control at 80 g/ha (HORMU [2]; 80 g/ha): 90% | pest or weed control at 320 g/ha (HORMU [2]; 320 g/ha): 100% | pest or weed control at 20 g/ha (STEME [3]; dosage 20 g/ha): 100% | pest or weed control at 80 g/ha (STEME [3]; dosage 80 g/ha): 100% | pest or weed control at 320 g/ha (STEME [3]; dosage 320 g/ha): 100% | pest or weed control at 80 g/ha (LOLRI [4]; 80 g/ha): 90% | pest or weed control at 320 g/ha (LOLRI [4]; 320 g/ha): 100% | pest or weed control at 5 g/ha (PHBPU; dosage 5 g/ha): 80% | pest or weed control at 20 g/ha (PHBPU; dosage 20 g/ha): 100% | pest or weed control at 80 g/ha (PHBPU; dosage 80 g/ha): 100% | pest or weed control at 20 g/ha (STEME [5]; 20 g/ha): 100% | pest or weed control at 80 g/ha (STEME [5]; 80 g/ha): 100% | pest or weed control at 5 g/ha (STEME [5]; dosage 5 g/ha): 100% | pest or weed control at 5 g/ha (ECHCG [6]; dosage 5 g/ha): 100% | pest or weed control at 20 g/ha (ECHCG [6]; dosage 20 g/ha): 100% | pest or weed control at 80 g/ha (ECHCG [6]; dosage 80 g/ha): 100% | pest or weed control at 20 g/ha (AMARE [7]; 20 g/ha, scored visually after 3 weeks vs untreated controls): 100% | pest or weed control at 80 g/ha (AMARE [7]; 80 g/ha, scored visually after 3 weeks vs untreated controls): 100% | pest or weed control at 320 g/ha (AMARE [7]; 320 g/ha, scored visually after 3 weeks): 100% | pest or weed control at 5 g/ha (ALOMY [8]; dosage 5 g/ha): 90% | pest or weed control at 20 g/ha (ALOMY [8]; dosage 20 g/ha): 100% | pest or weed control at 80 g/ha (ALOMY [8]; dosage 80 g/ha): 100% | pest or weed control at 5 g/ha (SETVI [9]; dosage 5 g/ha): 100% | pest or weed control at 20 g/ha (SETVI [9]; dosage 20 g/ha): 100% | pest or weed control at 80 g/ha (SETVI [9]; dosage 80 g/ha): 100% | pest or weed control at 80 g/ha (AVEFA [10]; 80 g/ha): 100% | pest or weed control at 20 g/ha (AVEFA [10]; [19]): 100% | pest or weed control at 320 g/ha (AVEFA [10]; [20]): 100% | pest or weed control at 80 g/ha (SETVI [11]; dosage 80 g/ha): 100% | pest or weed control at 320 g/ha (SETVI [11]; dosage 320 g/ha): 100% | pest or weed control at 80 g/ha (ALOMY [12]; [21]): 100% | pest or weed control at 20 g/ha (ALOMY [12]; [19]): 90% | pest or weed control at 320 g/ha (ALOMY [12]; [20]): 100% | pest or weed control at 5 g/ha (VIOTR; 5 g/ha): 80% | pest or weed control at 20 g/ha (VIOTR; 20 g/ha): 100% | pest or weed control at 80 g/ha (VIOTR; 80 g/ha): 100% | pest or weed control at 80 g/ha (VERPE; dosage 80 g/ha): 100% | pest or weed control at 320 g/ha (VERPE; dosage 320 g/ha): 100% | pest or weed control at 20 g/ha (AVEFA [13]; 20 g/ha): 100% | pest or weed control at 80 g/ha (AVEFA [13]; 80 g/ha): 100% | pest or weed control at 20 g/ha (MATIN [14]; dosage 20 g/ha): 90% | pest or weed control at 80 g/ha (MATIN [14]; dosage 80 g/ha): 100% | pest or weed control at 20 g/ha (ECHCG [15]; 20 g/ha): 80% | pest or weed control at 80 g/ha (ECHCG [15]; 80 g/ha): 100% | pest or weed control at 320 g/ha (ECHCG [15]; 320 g/ha): 100% | pest or weed control at 80 g/ha (ABUTH; [21]): 100% | pest or weed control at 320 g/ha (ABUTH; Dosage: 320 g/ha, scored visually after 3 weeks, 100% = plants have died, 0% = like control plants): 100% | pest or weed control at 20 g/ha (ABUTH; dosage 20 g/ha, scored visually after 3 weeks vs untreated controls, 100% = plants have died, 0% = like control plants, read-out: Pre-emergence action against ABUTH (herbicidal activity in percent)): 100% | pest or weed control at 5 g/ha (HORMU [16]; dosage 5 g/ha): 90% | pest or weed control at 20 g/ha (HORMU [16]; dosage 20 g/ha): 100% | pest or weed control at 80 g/ha (HORMU [16]; dosage 80 g/ha): 100% | pest or weed control at 20 g/ha (MATIN [17]; dosage 20 g/ha): 100% | pest or weed control at 80 g/ha (MATIN [17]; dosage 80 g/ha): 100% | pest or weed control at 320 g/ha (MATIN [17]; dosage 320 g/ha): 100% | pest or weed control at 80 g/ha (POLCO): 100% | pest or weed control at 20 g/ha (AMARE [18]; 20 g/ha): 100% | pest or weed control at 80 g/ha (AMARE [18]; 80 g/ha): 100%
